Test results: patent US12358885B2, “Substituted n-propylamine fused heterocyclic mescaline derivatives” (Enveric Biosciences Canada Inc., priority 2022, dated 2025)

Experiments:
[1] = target: T1, 5-HT2B receptor (Homo sapiens, UniProt P41595); assay: Eurofins Cerep competition binding assay at 5-HT2B receptor; details: 10 μM test ligand, [3H]mesulergine, recombinant receptor in CHO cells; for inhibition at 10 µM: read-out: HT2B, percent of control-specific binding
T1 construct: host or cells: CHO cells (membrane preparation)
T1 sequence (P41595 whole entry): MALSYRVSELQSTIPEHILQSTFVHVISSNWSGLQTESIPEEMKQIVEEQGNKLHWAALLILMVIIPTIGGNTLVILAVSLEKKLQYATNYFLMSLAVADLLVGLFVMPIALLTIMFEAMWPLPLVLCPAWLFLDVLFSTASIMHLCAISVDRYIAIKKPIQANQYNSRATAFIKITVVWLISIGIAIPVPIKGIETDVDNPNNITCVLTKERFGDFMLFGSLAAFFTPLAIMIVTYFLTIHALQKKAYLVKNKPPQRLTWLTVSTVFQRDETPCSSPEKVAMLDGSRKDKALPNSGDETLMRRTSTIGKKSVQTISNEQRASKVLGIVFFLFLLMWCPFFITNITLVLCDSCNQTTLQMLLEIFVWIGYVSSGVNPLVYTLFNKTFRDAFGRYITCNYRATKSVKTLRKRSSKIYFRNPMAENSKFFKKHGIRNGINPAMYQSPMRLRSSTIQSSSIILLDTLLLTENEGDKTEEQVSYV

[2] = target: T2, alpha2A receptor (Homo sapiens, UniProt P08913); assay: Eurofins Cerep competition binding assay at alpha2A receptor; details: 10 μM test ligand; [3H]RX 821002; recombinant receptor in CHO cells
T2 construct: host or cells: CHO cells (membrane preparation)
T2 sequence (P08913 1-465): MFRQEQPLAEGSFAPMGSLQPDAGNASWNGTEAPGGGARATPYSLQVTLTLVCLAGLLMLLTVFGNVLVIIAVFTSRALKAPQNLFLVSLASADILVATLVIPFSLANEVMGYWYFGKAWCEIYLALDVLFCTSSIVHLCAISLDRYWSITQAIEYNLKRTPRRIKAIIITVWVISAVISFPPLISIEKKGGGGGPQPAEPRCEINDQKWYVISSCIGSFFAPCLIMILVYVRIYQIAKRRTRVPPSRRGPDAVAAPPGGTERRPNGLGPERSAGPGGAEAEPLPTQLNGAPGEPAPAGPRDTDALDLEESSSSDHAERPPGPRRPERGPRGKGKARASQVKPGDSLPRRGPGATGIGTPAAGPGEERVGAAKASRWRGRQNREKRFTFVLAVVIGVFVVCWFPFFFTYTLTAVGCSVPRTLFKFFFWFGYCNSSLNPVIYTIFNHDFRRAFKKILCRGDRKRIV

[3] = target: T3, 5-HT7 receptor (Homo sapiens, UniProt P34969); assay: Eurofins Cerep competition binding assay at 5-HT7 receptor; details: 10 μM test ligand, [3H]LSD, recombinant receptor in HEK-293 cells; for inhibition at 10 µM: read-out: HT7, percent of control-specific binding
T3 construct: host or cells: HEK-293 cells (membrane preparation)
T3 sequence (P34969 whole entry): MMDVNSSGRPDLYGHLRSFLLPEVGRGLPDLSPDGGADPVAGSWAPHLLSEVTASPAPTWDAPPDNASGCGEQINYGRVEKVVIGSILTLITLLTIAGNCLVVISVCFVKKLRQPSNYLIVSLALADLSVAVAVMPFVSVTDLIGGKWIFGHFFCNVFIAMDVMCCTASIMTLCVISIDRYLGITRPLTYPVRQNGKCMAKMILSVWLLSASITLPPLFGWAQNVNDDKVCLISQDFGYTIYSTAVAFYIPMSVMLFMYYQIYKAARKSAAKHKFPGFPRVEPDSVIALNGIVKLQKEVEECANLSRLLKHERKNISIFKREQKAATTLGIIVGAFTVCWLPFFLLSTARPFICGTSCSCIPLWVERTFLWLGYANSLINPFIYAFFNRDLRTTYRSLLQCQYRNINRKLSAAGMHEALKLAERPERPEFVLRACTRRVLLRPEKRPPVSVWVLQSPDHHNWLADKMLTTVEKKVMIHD

[4] = target: T4, 5-HT2C receptor (Homo sapiens, UniProt P28335); assay: Eurofins Cerep competition binding assay at 5-HT2C receptor; details: 10 μM test ligand, [125I](±)DOI, recombinant receptor in HEK-293 cells; for inhibition at 10 µM: read-out: HT2C, percent of control-specific binding
T4 construct: host or cells: HEK-293 cells (membrane preparation)
T4 sequence (P28335 33-458): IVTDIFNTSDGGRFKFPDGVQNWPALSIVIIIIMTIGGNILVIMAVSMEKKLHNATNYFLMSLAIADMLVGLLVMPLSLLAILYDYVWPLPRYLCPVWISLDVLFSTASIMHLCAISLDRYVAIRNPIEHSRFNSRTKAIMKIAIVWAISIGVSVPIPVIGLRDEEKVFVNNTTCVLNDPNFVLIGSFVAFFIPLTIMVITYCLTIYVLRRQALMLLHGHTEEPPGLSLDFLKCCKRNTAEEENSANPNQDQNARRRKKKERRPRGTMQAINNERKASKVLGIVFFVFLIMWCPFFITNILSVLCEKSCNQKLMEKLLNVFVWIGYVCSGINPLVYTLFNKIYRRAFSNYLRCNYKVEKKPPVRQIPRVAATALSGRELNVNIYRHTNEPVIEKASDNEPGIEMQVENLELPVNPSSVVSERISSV

[5] = target: T5, D3 receptor (Homo sapiens, UniProt P35462); assay: Eurofins Cerep competition binding assay at D3 receptor; details: 10 μM test ligand, [3H]methylspiperone, recombinant receptor in CHO cells; for inhibition at 10 µM: read-out: D3, percent of control-specific binding
T5 construct: host or cells: CHO cells (membrane preparation)
T5 sequence (P35462 whole entry): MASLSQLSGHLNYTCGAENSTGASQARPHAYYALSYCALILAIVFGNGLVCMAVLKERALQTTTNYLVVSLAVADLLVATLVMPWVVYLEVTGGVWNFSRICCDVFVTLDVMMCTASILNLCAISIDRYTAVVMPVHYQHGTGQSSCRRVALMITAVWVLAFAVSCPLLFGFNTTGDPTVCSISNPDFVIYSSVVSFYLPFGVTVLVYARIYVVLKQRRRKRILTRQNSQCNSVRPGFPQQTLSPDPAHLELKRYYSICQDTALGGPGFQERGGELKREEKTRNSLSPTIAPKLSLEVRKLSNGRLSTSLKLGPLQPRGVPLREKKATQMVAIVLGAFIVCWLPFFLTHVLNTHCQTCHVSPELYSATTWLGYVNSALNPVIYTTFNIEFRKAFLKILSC

[6] = target: T6, serotonin transporter (SERT) (Homo sapiens, UniProt P31645); assay: biochemical; format: binding; details: for inhibition at 10 µM: read-out: SERT, percent of control-specific binding; for SERT, percent of control-specific binding: 10 µM
T6 construct: host or cells: CHO cells (membrane preparation)
T6 sequence (P31645 whole entry): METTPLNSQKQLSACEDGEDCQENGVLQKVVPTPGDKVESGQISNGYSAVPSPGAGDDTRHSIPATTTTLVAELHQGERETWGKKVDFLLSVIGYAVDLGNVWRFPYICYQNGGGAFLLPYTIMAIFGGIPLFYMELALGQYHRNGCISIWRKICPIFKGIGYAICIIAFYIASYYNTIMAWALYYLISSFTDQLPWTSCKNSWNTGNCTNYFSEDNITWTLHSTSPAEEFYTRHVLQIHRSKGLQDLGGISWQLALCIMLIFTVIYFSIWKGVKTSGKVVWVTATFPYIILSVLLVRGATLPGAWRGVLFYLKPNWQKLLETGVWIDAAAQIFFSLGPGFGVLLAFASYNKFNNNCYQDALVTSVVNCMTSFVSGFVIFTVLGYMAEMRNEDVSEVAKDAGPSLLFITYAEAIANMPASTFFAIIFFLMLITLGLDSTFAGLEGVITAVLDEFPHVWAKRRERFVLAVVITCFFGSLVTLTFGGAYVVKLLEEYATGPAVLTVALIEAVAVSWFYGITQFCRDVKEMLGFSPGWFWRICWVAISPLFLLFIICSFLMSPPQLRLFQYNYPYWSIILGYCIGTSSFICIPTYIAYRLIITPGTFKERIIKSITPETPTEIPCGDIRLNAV

[7] = target: T7, norepinephrine transporter (NET) (Homo sapiens, UniProt P23975); assay: Eurofins Cerep competition binding assay at norepinephrine transporter; details: for inhibition at 10 µM: read-out: NET, percent of control-specific binding; for NET, percent of control-specific binding: 10 μM test ligand, [3H]nisoxetine, recombinant transporter in CHO cells
T7 construct: host or cells: CHO cells (membrane preparation)
T7 sequence (P23975 whole entry): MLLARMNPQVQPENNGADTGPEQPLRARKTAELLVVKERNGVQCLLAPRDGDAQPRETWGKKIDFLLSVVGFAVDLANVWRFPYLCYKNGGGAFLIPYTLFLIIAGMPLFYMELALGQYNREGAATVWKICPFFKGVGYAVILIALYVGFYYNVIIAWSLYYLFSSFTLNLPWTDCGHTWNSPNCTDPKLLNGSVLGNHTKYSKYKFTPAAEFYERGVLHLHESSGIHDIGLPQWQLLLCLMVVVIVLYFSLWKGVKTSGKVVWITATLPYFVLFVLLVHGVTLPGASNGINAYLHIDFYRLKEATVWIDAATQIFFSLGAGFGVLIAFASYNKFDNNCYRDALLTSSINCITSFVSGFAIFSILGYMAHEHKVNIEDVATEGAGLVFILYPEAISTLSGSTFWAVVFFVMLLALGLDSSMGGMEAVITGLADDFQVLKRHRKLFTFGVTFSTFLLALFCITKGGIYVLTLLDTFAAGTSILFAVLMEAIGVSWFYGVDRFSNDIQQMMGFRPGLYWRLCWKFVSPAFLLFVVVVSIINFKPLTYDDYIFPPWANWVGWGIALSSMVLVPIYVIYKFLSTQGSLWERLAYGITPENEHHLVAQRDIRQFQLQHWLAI

[8] = target: T8, dopamine transporter (DAT) (Homo sapiens, UniProt Q01959); assay: Eurofins Cerep competition binding assay at dopamine transporter; details: for inhibition at 10 µM: read-out: DAT, percent of control-specific binding; for DAT, percent of control-specific binding: 10 μM test ligand, [3H]BTCP, recombinant transporter in CHO cells
T8 construct: host or cells: CHO cells (membrane preparation)
T8 sequence (Q01959 whole entry): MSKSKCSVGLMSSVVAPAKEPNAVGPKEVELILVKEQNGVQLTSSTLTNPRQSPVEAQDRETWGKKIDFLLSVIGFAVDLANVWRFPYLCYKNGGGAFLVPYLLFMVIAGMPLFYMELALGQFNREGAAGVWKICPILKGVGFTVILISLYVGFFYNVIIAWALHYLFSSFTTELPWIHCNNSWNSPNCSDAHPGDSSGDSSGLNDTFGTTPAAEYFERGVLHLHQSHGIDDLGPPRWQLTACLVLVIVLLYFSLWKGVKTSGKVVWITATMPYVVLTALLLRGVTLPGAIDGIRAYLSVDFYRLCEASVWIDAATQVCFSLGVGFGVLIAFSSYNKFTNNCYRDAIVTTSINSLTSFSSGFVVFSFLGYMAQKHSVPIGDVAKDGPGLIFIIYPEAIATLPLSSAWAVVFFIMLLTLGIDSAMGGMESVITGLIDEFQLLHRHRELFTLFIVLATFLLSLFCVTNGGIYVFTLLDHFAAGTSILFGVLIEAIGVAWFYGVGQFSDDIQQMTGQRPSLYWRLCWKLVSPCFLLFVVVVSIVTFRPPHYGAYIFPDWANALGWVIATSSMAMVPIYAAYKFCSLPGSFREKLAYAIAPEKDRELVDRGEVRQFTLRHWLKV

[9] = target: T9, 5-HT1A receptor (Homo sapiens, UniProt P08908); assay: 5-HT1A receptor radioligand competition assay (SPA, 8-hydroxy-DPAT [3H]); format: binding; details: 0.5 nM hot 8-hydroxy-DPAT, membranes containing 5-HT1A
T9 construct: purchased Perkin Elmer 6110501400UA
T9 sequence (P08908 1-422): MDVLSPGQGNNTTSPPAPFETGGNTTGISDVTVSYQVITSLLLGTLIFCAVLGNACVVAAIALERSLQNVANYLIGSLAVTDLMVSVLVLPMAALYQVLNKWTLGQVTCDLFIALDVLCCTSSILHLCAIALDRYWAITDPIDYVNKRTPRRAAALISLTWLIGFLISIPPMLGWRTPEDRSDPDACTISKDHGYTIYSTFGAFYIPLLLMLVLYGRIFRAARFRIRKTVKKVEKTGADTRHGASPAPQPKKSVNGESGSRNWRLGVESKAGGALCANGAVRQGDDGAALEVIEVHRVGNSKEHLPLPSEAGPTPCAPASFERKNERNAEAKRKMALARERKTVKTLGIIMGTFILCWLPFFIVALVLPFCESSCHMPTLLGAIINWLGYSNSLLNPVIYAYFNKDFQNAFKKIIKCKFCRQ

[10] = target: T10, MT1 receptor (Homo sapiens, UniProt P48039); assay: Eurofins Cerep competition binding assay at MT1 receptor; details: for inhibition at 10 µM: read-out: MT1, percent of control-specific binding; for MT1, percent of control-specific binding: 10 μM test ligand, [125I]2-iodomelatonin, recombinant receptor in CHO cells
T10 construct: host or cells: CHO cells (membrane preparation)
T10 sequence (P48039 whole entry): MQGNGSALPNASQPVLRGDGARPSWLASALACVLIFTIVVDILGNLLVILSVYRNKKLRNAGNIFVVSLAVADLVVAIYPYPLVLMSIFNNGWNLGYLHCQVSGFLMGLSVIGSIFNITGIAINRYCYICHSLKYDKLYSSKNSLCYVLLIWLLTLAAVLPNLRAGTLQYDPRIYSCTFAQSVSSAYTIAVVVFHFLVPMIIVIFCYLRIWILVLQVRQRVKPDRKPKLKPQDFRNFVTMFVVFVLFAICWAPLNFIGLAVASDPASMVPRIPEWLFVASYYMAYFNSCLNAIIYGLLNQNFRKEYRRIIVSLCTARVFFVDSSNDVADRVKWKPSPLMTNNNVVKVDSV

[11] = target: T11, 5-HT2A receptor (Homo sapiens, UniProt P28223); assay: biochemical; format: binding; details: 10 μM test molecule, [125I](±)DOI, recombinant receptor in HEK-293 cells; for inhibition at 10 µM: read-out: HT2A, percent of control-specific binding
T11 construct: host or cells: HEK-293 cells (membrane preparation)
T11 sequence (P28223 whole entry): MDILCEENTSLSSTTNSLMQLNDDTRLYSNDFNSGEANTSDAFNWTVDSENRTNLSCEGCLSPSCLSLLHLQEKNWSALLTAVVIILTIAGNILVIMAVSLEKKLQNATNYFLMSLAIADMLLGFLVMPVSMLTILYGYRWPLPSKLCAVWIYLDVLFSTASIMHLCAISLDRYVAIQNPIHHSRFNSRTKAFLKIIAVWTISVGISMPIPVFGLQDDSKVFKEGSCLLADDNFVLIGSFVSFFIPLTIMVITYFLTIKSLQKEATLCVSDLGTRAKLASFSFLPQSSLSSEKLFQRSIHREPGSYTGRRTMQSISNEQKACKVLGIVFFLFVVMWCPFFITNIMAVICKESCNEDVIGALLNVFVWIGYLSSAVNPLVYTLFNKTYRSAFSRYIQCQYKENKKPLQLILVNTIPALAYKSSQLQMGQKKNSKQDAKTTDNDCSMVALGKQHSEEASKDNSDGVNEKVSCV

[12] = target: T9, 5-HT1A receptor; assay: Eurofins Cerep competition binding assay at 5-HT1A receptor; details: 10 μM test ligand, [3H]8-OH-DPAT, recombinant receptor in HEK-293 cells; for inhibition at 10 µM: read-out: HT1A, percent of control-specific binding
[13] = target: T9, 5-HT1A receptor; assay: Functional 5-HT1A receptor cAMP assay in CHO-K1/5-HT1A/Gα15 cells; format: cell-based
[14] = target: T11, 5-HT2A receptor; assay: biochemical; format: binding; details: 1 nM [3H]ketanserin; membranes containing 5-HT2A; SPA

In the case of `Brc1cc2c(cc1CCCN1CCCC1)OCO2` [C(IV)], the inhibition at 10 µM [1] is reported as 73%, the “α-2A, percent of control-specific binding” value (from here on “α-2A, percent”) [2] is reported as 55% and the inhibition at 10 µM [3] is reported as 40%. For the same molecule, the inhibition at 10 µM [4] was 65%, the inhibition at 10 µM [5] was 61% and the inhibition at 10 µM [6] was 31%. It also gave an inhibition at 10 µM [7] of 0%, an inhibition at 10 µM [8] of 10% and a Ki [9] of 0.596 µM. The inhibition at 10 µM [10] was 8%, the inhibition at 10 µM [11] was 62% and the inhibition at 10 µM [12] was 92%.
`COc1cc2c(cc1CCCN1CCCC1)OCO2` [C(V)] gave an EC50 [13] of 116 µM and a Ki [9] of 5 µM.
`CC(Cc1ccc2c(c1)OCO2)CN1CCCC1` (racemic) [A(II)] showed a Ki [9] of 8 µM.
With `CCOc1c(OC)cc(CCN)cc1OC` [escaline] the “HT2B, percent of control-specific binding” value [1] was 81%, the “α-2A, percent” value [2] was 45% and the “HT7, percent of control-specific binding” value [3] was 16%. For the same molecule, the “HT2C, percent of control-specific binding” value [4] was 95%, the “D3, percent of control-specific binding” value [5] was 0% and the “SERT, percent of control-specific binding” value [6] was 0%. For the same molecule, the Ki [14] was 61 µM, the “NET, percent of control-specific binding” value [7] was 6% and the “DAT, percent of control-specific binding” value [8] was 0%. For the same molecule, the Ki [9] was 12.4 µM, the “MT1, percent of control-specific binding” value [10] was 0% and the “HT2A, percent of control-specific binding” value [11] was 84%. The “HT1A, percent of control-specific binding” value [12] was 44%.
With `CN(C)CCCN1c2ccccc2CCc2ccccc21` [Imipramine] the “α-2A, percent” value [2] was 57%, the inhibition at 10 µM [5] was 92% and the inhibition at 10 µM [11] was 97%.
With `O=C(CCc1cc2c(cc1Br)OCO2)N1CCCC1` [F(IV)] the inhibition at 10 µM [1] was 26%, the “α-2A, percent” value [2] was 4% and the inhibition at 10 µM [3] was 0%. The inhibition at 10 µM [4] was 8%, the inhibition at 10 µM [5] was 12% and the inhibition at 10 µM [6] was 0%. The inhibition at 10 µM [7] was 0%, the inhibition at 10 µM [8] was 0% and the Ki [9] was 84.5 µM. The inhibition at 10 µM [10] was 42%, the inhibition at 10 µM [11] was 0% and the inhibition at 10 µM [12] was 37%.
In the case of `COc1cc(CCN)cc(OC)c1OC` [mescaline, 3,4,5 trimethoxyphenethylamine], the “α-2A, percent” value [2] is reported as 57%, the inhibition at 10 µM [5] is reported as -13% and the inhibition at 10 µM [11] is reported as 79%.
With `COc1cc(CC(C)N)c(OC)cc1Br` (centres unmarked) [DOB, reference compound] the “HT2B, percent of control-specific binding” value [1] was 97%, the “α-2A, percent” value [2] was 66% and the “HT7, percent of control-specific binding” value [3] was 65%. For the same molecule, the “D3, percent of control-specific binding” value [5] was 25%, the “SERT, percent of control-specific binding” value [6] was 53% and the “NET, percent of control-specific binding” value [7] was 6%. For the same molecule, the “DAT, percent of control-specific binding” value [8] was 3%, the “MT1, percent of control-specific binding” value [10] was −3% and the “HT2A, percent of control-specific binding” value [11] was 100%. For the same molecule, the “HT1A, percent of control-specific binding” value [12] was 75%.
In the case of `COc1ccc2cccc(CCNC(C)=O)c2c1` [Agomelatine], the “α-2A, percent” value [2] is reported as 2%, the inhibition at 10 µM [5] is reported as 6% and the inhibition at 10 µM [11] is reported as 61%.
For `CCCOc1c(OC)cc(CCN)cc1OC` [proscaline], the “α-2A, percent” value [2] was 40%, the inhibition at 10 µM [5] was 4% and the inhibition at 10 µM [11] was 91%.
`OCCNCCCc1cc2c(cc1Br)OCO2` [C(XIII)] gave an EC50 [13] of 22.9 µM.
With `NCCc1c[nH]c2ccc(O)cc12` [serotonin] the “α-2A, percent” value [2] was 18% and the inhibition at 10 µM [5] was 73%.
